The values that follow are results of earlier work, collected in patent publication US20150105473A1, “AN ANTIBACTERIAL COMPOSITION WITH LOW AMOUNTS OF SURFACTANT AND ANTIBACTERIAL ACTIVES” (The Dial Corporation, priority 2013, published 2015).

Regarding `Oc1cc(Cl)ccc1Oc1ccc(Cl)cc1Cl` [triclosan], the solubility in water result is given as “poor solubility in water”.
